Data taken from ChEMBL document CHEMBL4725421, “SMARCA2/4 PROTAC for Targeted Protein Degradation and Cancer Therapy” (ACS Med Chem Lett, 2020).

Legend:
Type in all cases: cell-based
[1] = target: von Hippel-Lindau disease tumor suppressor/SWI/SNF-related matrix-associated actin-dependent regulator of chromatin subfamily A member 2 (Homo sapiens, UniProt P40337+P51531); test: Protac activity at VHL/SMARCA2 in human A549 cells assessed as induction of SMARCA2 bromodomain degradation using rabbit anti-SMARCA2 antibody incubated for 18 hrs by WES capillary electrophoresis
[2] = target: von Hippel-Lindau disease tumor suppressor/SWI/SNF-related matrix-associated actin-dependent regulator of chromatin subfamily A member 2 (Homo sapiens) (UniProt P51531+P40337); test: Protac activity at VHL/SMARCA2 in human A549 cells assessed as induction of SMARCA2 bromodomain degradation using rabbit anti-SMARCA2 antibody incubated for 18 hrs by WES capillary electrophoresis relative to initial level
[3] = target: von Hippel-Lindau disease tumor suppressor/SWI/SNF-related matrix-associated actin-dependent regulator of chromatin subfamily A member 4 (Homo sapiens, UniProt P40337+P51532); test: Protac activity at VHL/SMARCA4 in human A549 cells assessed as induction of SMARCA4 bromodomain degradation using anti-SMARCA4 antibody incubated for 18 hrs by WES capillary electrophoresis
[4] = target: von Hippel-Lindau disease tumor suppressor/SWI/SNF-related matrix-associated actin-dependent regulator of chromatin subfamily A member 4 (Homo sapiens) (UniProt P51532+P40337); test: Protac activity at VHL/SMARCA4 in human A549 cells assessed as induction of SMARCA4 bromodomain degradation using anti-SMARCA4 antibody incubated for 18 hrs by WES capillary electrophoresis relative to initial level
Chain of von Hippel-Lindau disease tumor suppressor/SWI/SNF-related matrix-associated actin-dependent regulator of chromatin subfamily A member 4 (Homo sapiens) (P40337 whole entry, looked up): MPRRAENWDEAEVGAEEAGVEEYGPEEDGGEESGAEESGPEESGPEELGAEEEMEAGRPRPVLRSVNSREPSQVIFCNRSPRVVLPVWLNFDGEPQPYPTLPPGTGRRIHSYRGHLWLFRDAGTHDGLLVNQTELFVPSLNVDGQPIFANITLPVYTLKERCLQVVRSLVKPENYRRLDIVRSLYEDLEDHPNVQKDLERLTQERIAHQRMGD
Chain of von Hippel-Lindau disease tumor suppressor/SWI/SNF-related matrix-associated actin-dependent regulator of chromatin subfamily A member 4 (Homo sapiens) (P51532 whole entry, looked up): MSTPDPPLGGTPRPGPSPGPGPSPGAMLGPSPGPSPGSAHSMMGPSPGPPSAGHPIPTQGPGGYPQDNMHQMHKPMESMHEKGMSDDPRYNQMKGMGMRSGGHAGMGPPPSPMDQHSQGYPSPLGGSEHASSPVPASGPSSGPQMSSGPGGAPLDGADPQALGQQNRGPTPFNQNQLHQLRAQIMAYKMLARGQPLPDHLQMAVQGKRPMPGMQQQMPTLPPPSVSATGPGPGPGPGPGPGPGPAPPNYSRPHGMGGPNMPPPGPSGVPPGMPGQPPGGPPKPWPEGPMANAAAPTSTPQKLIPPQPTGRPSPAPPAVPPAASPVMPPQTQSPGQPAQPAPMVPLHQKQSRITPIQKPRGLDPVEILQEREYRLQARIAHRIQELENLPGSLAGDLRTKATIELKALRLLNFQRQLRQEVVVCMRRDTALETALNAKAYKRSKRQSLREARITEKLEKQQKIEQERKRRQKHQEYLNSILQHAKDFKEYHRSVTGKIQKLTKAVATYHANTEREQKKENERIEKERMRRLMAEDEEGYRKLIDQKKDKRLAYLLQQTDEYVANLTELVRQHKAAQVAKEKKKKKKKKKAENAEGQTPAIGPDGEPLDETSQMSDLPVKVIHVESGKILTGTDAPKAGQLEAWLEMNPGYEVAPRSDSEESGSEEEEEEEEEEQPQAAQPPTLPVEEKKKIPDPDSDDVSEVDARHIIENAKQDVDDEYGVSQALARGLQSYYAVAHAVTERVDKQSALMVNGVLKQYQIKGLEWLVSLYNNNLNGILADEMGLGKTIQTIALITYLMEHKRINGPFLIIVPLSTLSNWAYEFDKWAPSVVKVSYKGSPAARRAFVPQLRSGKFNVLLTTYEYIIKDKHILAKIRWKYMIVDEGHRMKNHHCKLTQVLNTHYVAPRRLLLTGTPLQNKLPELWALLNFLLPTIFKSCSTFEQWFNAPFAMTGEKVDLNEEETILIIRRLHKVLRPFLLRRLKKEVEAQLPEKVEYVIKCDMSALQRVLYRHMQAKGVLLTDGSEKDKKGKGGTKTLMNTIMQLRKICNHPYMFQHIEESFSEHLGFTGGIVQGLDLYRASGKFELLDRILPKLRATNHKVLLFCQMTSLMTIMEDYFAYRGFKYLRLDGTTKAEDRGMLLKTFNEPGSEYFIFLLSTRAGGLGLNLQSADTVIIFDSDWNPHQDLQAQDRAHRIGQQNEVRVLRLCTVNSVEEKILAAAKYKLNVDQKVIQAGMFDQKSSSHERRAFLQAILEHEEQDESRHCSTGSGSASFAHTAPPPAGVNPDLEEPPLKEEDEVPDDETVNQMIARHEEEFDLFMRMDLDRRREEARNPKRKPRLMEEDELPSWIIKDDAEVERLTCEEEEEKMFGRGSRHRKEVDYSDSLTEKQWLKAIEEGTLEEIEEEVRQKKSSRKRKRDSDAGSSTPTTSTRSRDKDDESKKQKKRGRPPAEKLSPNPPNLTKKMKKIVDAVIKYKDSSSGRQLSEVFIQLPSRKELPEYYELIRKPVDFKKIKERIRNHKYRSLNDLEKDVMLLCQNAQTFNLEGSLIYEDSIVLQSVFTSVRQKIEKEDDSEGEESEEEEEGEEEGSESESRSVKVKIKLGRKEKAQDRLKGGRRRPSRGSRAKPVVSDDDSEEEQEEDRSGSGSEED

Chain of von Hippel-Lindau disease tumor suppressor/SWI/SNF-related matrix-associated actin-dependent regulator of chromatin subfamily A member 2 (Homo sapiens) (P40337 whole entry, looked up): as the sequence (P40337 whole entry, looked up) above
Chain of von Hippel-Lindau disease tumor suppressor/SWI/SNF-related matrix-associated actin-dependent regulator of chromatin subfamily A member 2 (Homo sapiens) (P51531 whole entry, looked up): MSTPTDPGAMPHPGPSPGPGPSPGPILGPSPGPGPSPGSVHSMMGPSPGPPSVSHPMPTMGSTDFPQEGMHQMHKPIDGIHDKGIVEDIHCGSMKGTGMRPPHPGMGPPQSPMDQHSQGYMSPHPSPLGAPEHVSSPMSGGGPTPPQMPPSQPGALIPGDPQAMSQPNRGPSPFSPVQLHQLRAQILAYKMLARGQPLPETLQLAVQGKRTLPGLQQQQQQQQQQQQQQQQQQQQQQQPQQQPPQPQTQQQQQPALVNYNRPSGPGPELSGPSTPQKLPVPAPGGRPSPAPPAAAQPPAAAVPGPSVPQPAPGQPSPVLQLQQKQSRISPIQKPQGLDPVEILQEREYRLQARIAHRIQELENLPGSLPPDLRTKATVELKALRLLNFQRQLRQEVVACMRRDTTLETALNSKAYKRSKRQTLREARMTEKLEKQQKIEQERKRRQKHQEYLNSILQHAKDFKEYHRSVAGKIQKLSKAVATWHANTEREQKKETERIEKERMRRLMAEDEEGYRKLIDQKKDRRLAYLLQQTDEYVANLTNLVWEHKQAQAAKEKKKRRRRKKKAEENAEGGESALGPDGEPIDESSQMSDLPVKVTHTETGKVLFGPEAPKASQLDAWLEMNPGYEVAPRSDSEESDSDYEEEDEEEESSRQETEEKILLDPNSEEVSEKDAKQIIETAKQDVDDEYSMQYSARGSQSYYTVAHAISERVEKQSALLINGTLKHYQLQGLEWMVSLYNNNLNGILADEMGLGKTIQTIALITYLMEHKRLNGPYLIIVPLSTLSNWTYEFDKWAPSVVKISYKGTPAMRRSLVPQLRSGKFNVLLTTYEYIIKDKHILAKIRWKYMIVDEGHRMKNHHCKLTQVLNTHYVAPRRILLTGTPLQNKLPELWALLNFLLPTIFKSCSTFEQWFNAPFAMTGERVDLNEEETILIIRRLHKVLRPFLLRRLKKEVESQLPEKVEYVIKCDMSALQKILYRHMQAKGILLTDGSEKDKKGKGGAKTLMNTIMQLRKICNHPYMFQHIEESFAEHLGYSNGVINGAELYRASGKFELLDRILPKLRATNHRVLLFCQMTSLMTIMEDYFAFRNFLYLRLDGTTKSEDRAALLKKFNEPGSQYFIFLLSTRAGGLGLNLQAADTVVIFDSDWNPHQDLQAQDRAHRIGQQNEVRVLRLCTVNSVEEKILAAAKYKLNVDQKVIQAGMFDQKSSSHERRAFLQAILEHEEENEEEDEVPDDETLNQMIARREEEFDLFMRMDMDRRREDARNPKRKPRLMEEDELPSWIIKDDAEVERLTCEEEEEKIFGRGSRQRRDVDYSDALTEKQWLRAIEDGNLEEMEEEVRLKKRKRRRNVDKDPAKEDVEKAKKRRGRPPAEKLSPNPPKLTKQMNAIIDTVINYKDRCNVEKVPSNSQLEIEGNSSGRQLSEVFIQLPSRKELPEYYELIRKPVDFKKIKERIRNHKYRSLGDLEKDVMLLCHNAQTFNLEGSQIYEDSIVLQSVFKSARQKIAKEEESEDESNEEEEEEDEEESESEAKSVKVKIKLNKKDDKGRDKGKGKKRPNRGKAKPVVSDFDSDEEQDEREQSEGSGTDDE
Chain of von Hippel-Lindau disease tumor suppressor/SWI/SNF-related matrix-associated actin-dependent regulator of chromatin subfamily A member 4 (P51532 whole entry): as the sequence (P51532 whole entry, looked up) above
Chain of von Hippel-Lindau disease tumor suppressor/SWI/SNF-related matrix-associated actin-dependent regulator of chromatin subfamily A member 4 (P40337 whole entry): as the sequence (P40337 whole entry, looked up) above
Chain of von Hippel-Lindau disease tumor suppressor/SWI/SNF-related matrix-associated actin-dependent regulator of chromatin subfamily A member 2 (P51531 whole entry): as the sequence (P51531 whole entry, looked up) above
Chain of von Hippel-Lindau disease tumor suppressor/SWI/SNF-related matrix-associated actin-dependent regulator of chromatin subfamily A member 2 (P40337 whole entry): as the sequence (P40337 whole entry, looked up) above

Row | EC50 [1] | Emax [2] | EC50 [3] | Emax [4] | Compound
1 | 67 nM | 91% | 117 nM | 93% | Cc1ncsc1-c1ccc(CNC(=O)[C@@H]2C[C@@H](O)CN2C(=O)[C@@H](NC(=O)C2(F)CC2)C(C)(C)C)c(OCCc2ccc(CN3CCN(c4cc(-c5ccccc5O)nnc4N)CC3)cc2)c1
2 | 26 nM | 99% | 16 nM | 100% | Cc1ncsc1-c1ccc(CNC(=O)[C@@H]2C[C@@H](O)CN2C(=O)[C@@H](NC(=O)C2(F)CC2)C(C)(C)C)c(OCCCOc2ccc(CN3CCN(c4cc(-c5ccccc5O)nnc4N)CC3)cc2)c1
3 | 58 nM | 90% | 25 nM | 92% | Cc1ncsc1-c1ccc(CNC(=O)[C@@H]2C[C@@H](O)CN2C(=O)[C@@H](NC(=O)C2(F)CC2)C(C)(C)C)c(OCCCc2ccc(CN3CCN(c4cc(-c5ccccc5O)nnc4N)CC3)cc2)c1
4 | 12 nM | 98% | 16 nM | 97% | Cc1ncsc1-c1ccc(CNC(=O)[C@@H]2C[C@@H](O)CN2C(=O)[C@@H](NC(=O)C2(F)CC2)C(C)(C)C)c(OCCOc2ccc(CN3CCN(c4cc(-c5ccccc5O)nnc4N)CC3)cc2)c1
5 | 41 nM | 99% | 26 nM | 99% | Cc1ncsc1-c1ccc(CNC(=O)[C@@H]2C[C@@H](O)CN2C(=O)[C@@H](NC(=O)C2(F)CC2)C(C)(C)C)c(OCCc2ccc(OCCN3CCN(c4cc(-c5ccccc5O)nnc4N)CC3)cc2)c1
6 | 55 nM | 95% | 33 nM | 95% | Cc1ncsc1-c1ccc(CNC(=O)[C@@H]2C[C@@H](O)CN2C(=O)[C@@H](NC(=O)C2(F)CC2)C(C)(C)C)c(OCCc2ccc(CN3CCN(c4cc(-c5ccccc5O)nnc4N)CC3)c(F)c2)c1
